In US11306094B2, “Stable formulations of 5,10-methylene-(6R)-tetrahydrofolic acid” (MERCK & CIE, priority 2016, dated 2022):
Structures can show the parent of a compound that is named as a salt.

What was measured:
[1] = Phase I/II study ISO-CC-002, pharmacokinetics/pharmacodynamics versus Levoleucovorin; assay type: in vivo; details: compared to Levoleucovorin, 32 colon cancer patients
Description: (b) In a single-blinded, randomized phase I/II study (ISO-CC-002) performed on 32 patients diagnosed with colon cancer the pharmacokinetic and pharmacodynamic properties of (6R)-5,10-CH2-THF hemisulfate compared to Levoleucovorin in tumor tissue, adjacent mucosa and blood plasma were investigated. The study was performed at the Sahlgrenska University Hospital in Goteborg, Sweden. […] The concentrations of methylenetetrahydrofolate and tetrahydrofolate in both tumor and adjacent mucosa were also much higher after administration of (6R)-5,10-CH2-THF hemisulfate than those obtained after administration of Levoleucovorin.

[2] = Comparative stability hemisulfate versus sulfate salt (Example 4-1); assay type: physicochemical
Description: Stability studies were performed as in the examples above. The conditions for the studies are provided with each data set provided. Some of the data in this example is from previous examples herein, but are reproduced here to provide some kind of a side-by-side nature of the presentation of the results.

[3] = Crystal form stability by XRPD (85% ethanol; high temperature/low pressure); assay type: physicochemical
Description: (§1) (b) Stability in 85% Ethanol at Room Temperature (6R)-5,10-CH2-THF hemisulfate salt (3.01 g) was dispersed in 100 ml 85% EtOH at room temperature and stirred for 5 h, then filtered and dried at 30° C. and 8 mbar for 12 hours (over night). […] (c) Stability at High Temperature/Low Pressure (6R)-5,10-CH2-THF hemisulfate salt (2.17 g) was placed in a drying chamber at 65° C. and 8 mbar for 21 h. […] (d) Long-Term Stability of (6R)-5,10-CH2-THF Hemisulfate Salt and Pharmaceutical Composition Thereof In order to determine the long-term stabilities of (6R)-5,10-CH2-THF hemisulfate salt, the salts were stored in air at 25° C. and at 60% relative humidity. The content of (6R)-5,10-CH2-THF hemisulfate salt remaining was measured by HPLC at periodic intervals and is given by comparison with the initial value (% rel.).

Clinical safety = assay type: in vivo; details: patients, doses of up to 200 mg/m^2
[4] = Long-term stability of hemisulfate salt, HPLC content; assay type: physicochemical; details: salt stored in air, 25° C./60% rh
Description: as §1

[5] = Suspension equilibration stability; assay type: physicochemical
Text: (a) Suspension equilibration of (6R)-5,10-CH2-THF hemisulfate salt as starting material at temperatures other than room temperature in a variety of solvents and mixture are summarized in Table 10: […]

Nc1nc2c(c(=O)[nH]1)N1CN(c3ccc(C(=O)N[C@@H](CCC(=O)O)C(=O)O)cc3)C[C@H]1CN2 [(6R)-5,10-CH2-THF hemisulfate salt, N-[4-[(6aR)-3-amino-1,2,5,6,6a,7-hexahydro-1-oxoimidazo[1,5-f]pteridin-8(9H)-yl]benzoyl]-L-glutamic acid]
concentrations of methylenetetrahydrofolate and tetrahydrofolate in tumor and adjacent mucosa [1]: much higher | exposure and peak plasma concentrations of methylenetetrahydrofolate [1]: substantially greater | stability compared with the sulfate salt ([2]; 3 batches, various temperatures): remarkably more stable | stability at elevated temperature ([2]; +40° C. and relative humidity of 75%): excellent stability | X-ray pattern of crystal form Type 1 (XRPD) ([3]; drying chamber 65° C. and 8 mbar for 21 h): remained unchanged | X-ray pattern of crystal form Type 1 (XRPD) ([3]; stirred in 85% EtOH at room temperature for 5 h): remained unchanged | safety (Clinical safety): safe | (6R)-5,10-CH2—THF hemisulfate (% rel) ([4]; 0 months): 100.0 % rel | (6R)-5,10-CH2—THF hemisulfate (% rel) ([4]; 3 months, listed as (6R)-5,10-CH2—THF hemisulfate (batch 1)): 99.7 % rel | (6R)-5,10-CH2—THF hemisulfate (% rel) ([4]; 3 months, listed as (6R)-5,10-CH2—THF hemisulfate (batch 2)): 99.9 % rel | (6R)-5,10-CH2—THF hemisulfate (% rel) ([4]; 3 months, listed as (6R)-5,10-CH2—THF hemisulfate (batch 3)): 99.5 % rel | (6R)-5,10-CH2—THF hemisulfate (% rel) ([4]; 6 months): 99.5 % rel | (6R)-5,10-CH2—THF hemisulfate (% rel) ([4]; 6 months, listed as (6R)-5,10-CH2—THF hemisulfate (batch 2)): 99.9 % rel | (6R)-5,10-CH2—THF hemisulfate (% rel) ([4]; 9 months, listed as (6R)-5,10-CH2—THF hemisulfate (batch 1)): 99.6 % rel | (6R)-5,10-CH2—THF hemisulfate (% rel) ([4]; 9 months, listed as (6R)-5,10-CH2—THF hemisulfate (batch 2)): 100.0 % rel | (6R)-5,10-CH2—THF hemisulfate (% rel) ([4]; 9 months, listed as (6R)-5,10-CH2—THF hemisulfate (batch 3)): 99.4 % rel | (6R)-5,10-CH2—THF hemisulfate (% rel) ([4]; 12 months, listed as (6R)-5,10-CH2—THF hemisulfate (batch 1)): 99.2 % rel | (6R)-5,10-CH2—THF hemisulfate (% rel) ([4]; 12 months, listed as (6R)-5,10-CH2—THF hemisulfate (batch 2)): 99.7 % rel | (6R)-5,10-CH2—THF hemisulfate (% rel) ([4]; 12 months, listed as (6R)-5,10-CH2—THF hemisulfate (batch 3)): 99.1 % rel | (6R)-5,10-CH2—THF hemisulfate (% rel) ([4]; 18 months, listed as (6R)-5,10-CH2—THF hemisulfate (batch 1)): 99.2 % rel | (6R)-5,10-CH2—THF hemisulfate (% rel) ([4]; 18 months, listed as (6R)-5,10-CH2—THF hemisulfate (batch 2)): 99.4 % rel | (6R)-5,10-CH2—THF hemisulfate (% rel) ([4]; 18 months, listed as (6R)-5,10-CH2—THF hemisulfate (batch 3)): 99.0 % rel | (6R)-5,10-CH2—THF hemisulfate (% rel) ([4]; 24 months, listed as (6R)-5,10-CH2—THF hemisulfate (batch 1)): 99.4 % rel | (6R)-5,10-CH2—THF hemisulfate (% rel) ([4]; 24 months, listed as (6R)-5,10-CH2—THF hemisulfate (batch 2)): 99.4 % rel | (6R)-5,10-CH2—THF hemisulfate (% rel) ([4]; 24 months, listed as (6R)-5,10-CH2—THF hemisulfate (batch 3)): 99.0 % rel | (6R)-5,10-CH2—THF hemisulfate (% rel) ([4]; 36 months, listed as (6R)-5,10-CH2—THF hemisulfate (batch 1)): 98.5 % rel | (6R)-5,10-CH2—THF hemisulfate (% rel) ([4]; 36 months, listed as (6R)-5,10-CH2—THF hemisulfate (batch 2)): 99.0 % rel | Observation (suspension equilibration stability) ([5]; 2-PrOH with ~2 mM L-ascorbic acid, 40° C., 3 d): No change | Observation (suspension equilibration stability) ([5]; AcOH saturated with L-ascorbic acid, 50° C., 1 d): No change | Observation (suspension equilibration stability) ([5]; AcOH saturated with L-ascorbic acid, 50° C., 5 d): No change | Observation (suspension equilibration stability) ([5]; H2O, 5° C., 6 d): No change | Observation (suspension equilibration stability) ([5]; MeCN saturated with L-ascorbic acid, 50° C., 5 d): No change | Observation (suspension equilibration stability) ([5]; MeOH/formic acid 1:1, 50° C., 2 h): No change | Observation (suspension equilibration stability) ([5]; PEG4500/EtOH 1:9 saturated with L-ascorbic acid, 50° C., 7 d): No change | Observation (suspension equilibration stability) ([5]; THF with ~2 mM L-ascorbic acid, 40° C., 3 d): No change | Observation (suspension equilibration stability) ([5]; formic acid/THF 1:3, 10-20° C., 6 d): No change
